Measured values as given in PMC8347709 (International Journal of Molecular Sciences, 2021).
Values joined by “and” are separate entries in the source; they are usually repeats but may differ in a detail not shown here. Equal entries are not always repeated.

Tests used:
[1] = target: T1, CB2R in rat spleen tissue (Rattus norvegicus, UniProt Q9QZN9); assay: in vitro autoradiography on rat spleen cryosections; details: 10 µm cryosections, female SPRD rats; nonspecific binding with GW405833
T1 construct: from tissue; host or cells: rat spleen cryosections (female SPRD rat)
T1 sequence (Q9QZN9 1-360): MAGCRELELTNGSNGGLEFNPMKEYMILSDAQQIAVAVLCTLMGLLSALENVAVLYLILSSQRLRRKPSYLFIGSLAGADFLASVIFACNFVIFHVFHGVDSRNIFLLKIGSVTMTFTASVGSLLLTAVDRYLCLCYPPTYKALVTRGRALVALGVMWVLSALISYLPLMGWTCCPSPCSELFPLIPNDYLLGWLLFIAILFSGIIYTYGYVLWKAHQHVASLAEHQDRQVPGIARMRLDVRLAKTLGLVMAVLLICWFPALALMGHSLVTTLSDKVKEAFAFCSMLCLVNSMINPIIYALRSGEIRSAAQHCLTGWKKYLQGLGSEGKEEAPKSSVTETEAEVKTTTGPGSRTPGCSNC
Procedure: The in vitro autoradiographic experiments were performed according to a previously published protocol. […] Afterwards, the samples were washed, exposed to imaging plates (Fuji Photo Film, Co. Ltd., Tokyo, Japan), and eventually scanned using a HD-CR 35 scanner (raytest Isotopenmessgeraete GmbH, Straubenhardt, Germany). The scan data were visualised and processed by computer-assisted microdensitometry (Aida version 2.31, raytest Isotopenmessgeräte GmbH, Straubenhardt, Germany).
Figure S1. […] Cryosections (10 µm;
(nonspecific binding; (B) for 60 min. […]

[2] = quantification of radiometabolites in vivo; details: female CD-1 mice, 30 min p.i.
Procedure: Radiochemical yield, radiochemical purity and analyses of plasma and brain samples were assessed via reversed-phase HPLC (RP-HPLC) in gradient mode (0–10 min: 10% MeCN/20 mM NH4OAcaq., 10–30 min: 10%→90% MeCN/20 mM NH4OAcaq., 30–35 min: 90% MeCN/20 mM NH4OAcaq., 35–36 min: 90%→10% MeCN/20 mM NH4OAcaq. 36–45 min: 10% MeCN/20 mM NH4OAcaq.).
At 30 min p.i., the animals were anaesthetised and blood was withdrawn by retrobulbar bleeding using glass capillaries. Immediately afterwards, the animals were euthanised by cervical dislocation, and released urine was sampled. Blood plasma was obtained from the whole blood sample by centrifugation (2 min, 8000 rpm, room temperature). In addition, the brain and spleen were isolated and homogenised in 1 mL demineralised water on ice (1000 rpm, 10 strokes; glass vessel, PTFE plunger; Potter S, B. Braun Biotech International, Göttingen, Germany).
The samples were further processed for subsequent radio-chromatographic analyses. Two consecutive extractions were performed as duplicates for plasma and brain determinations. Plasma, brain and spleen samples were added to an ice-cold MeOH/H2O mixture (9:1, v/v). The samples were vortexed for 3 min, incubated on ice for 5 min and centrifuged at 10,000 rpm for 5 min. Supernatants were collected, and the precipitates were re-dissolved in 100 µL of extraction solvent, and the extraction procedure was repeated. The activities of supernatants and precipitates were measured in a γ-counter (1480 WIZARD, Fa. Perkin Elmer, Turku, Finland), and the extraction efficiencies were calculated as the ratio of radioactivity in the supernatant to the radioactivity in the original sample (supernatant + precipitate). The supernatants from both extractions were combined, concentrated at 70 °C under argon stream up to a remaining volume of 100 µL, and subsequently analysed by analytical radio-HPLC with a gradient system (see quality control section).

[3] = LogD7.4 by shake-flask method; type: physicochemical; details: n-octanol/phosphate-buffered saline, n-octanol/PBS pH 7.4, room temperature
Procedure: The measurement was performed twice in triplicate.

C[C@H]1CC[C@@H](NC(=O)c2cc3cccnc3n(CCCC[18F])c2=O)CC1 [[^18F]LU14]
specific binding in spleen autoradiography [1]: no or low specific binding
intact tracer in spleen (of the total activity detected) [2]: 50 ± 10%
intact tracer in the brain [2]: 82 ± 5% and > 80% and 82%
unchanged tracer in plasma ([2]; radio-HPLC): 17 ± 2% and 17%
logD [3]: 3.15 ± 0.25
